We go through six molecules from EPA's ToxRefDB 2.

Data set [1] has as its system rat. The settings on record: Prenatal developmental toxicity study, sprague dawley, Oral, Gavage/Intubation, dose end: 17 GD.
Data set [2] relates to rabbit. The settings on record: Prenatal developmental toxicity study, new zealand white, Oral, Gavage/Intubation, dose end: 18 GD.
Data set [3] concerns rat. To be noted: Combined chronic toxicity/carcinogenicity, fischer, Oral, Feed, dose end: 104 week.
For a further data set, the system named is dog. The settings on record: Chronic toxicity, beagle, Oral, Feed, dose end: 24 month.
Data set [4] relates to rat. The settings on record: Subchronic oral toxicity in rodents, sprague dawley, Feed, dose end: 6 month.
For data set [5], the system named is rat. The settings on record: Multigenerational reproductive toxicity study, wistar, Oral, Feed, dose end: 2 generation.
Data set [6] deals with rat. The settings on record: Multigenerational reproductive toxicity study, sprague dawley, Oral, Feed, dose end: 2 generation.
The subject of data set [7] is rabbit. The settings on record: Prenatal developmental toxicity study, himalayan, Oral, Gavage/Intubation, dose end: 28 GD.
The subject of data set [8] is rat. The settings on record: Prenatal developmental toxicity study, sprague dawley, Oral, Gavage/Intubation, dose end: 20 GD.
The subject of data set [9] is rabbit. To be noted: Prenatal developmental toxicity study, new zealand white, Oral, Water, dose end: 19 GD.
Data set [10] concerns rat. The settings on record: Prenatal developmental toxicity study, wistar, Oral, Gavage/Intubation, dose end: 19 GD.
Data set [11] has as its system rabbit. To be noted: Prenatal developmental toxicity study, himalayan, Oral, Gavage/Intubation, dose end: 28 GD. The source holds these as a separate data set.
The test system of data set [12] is rat. The settings on record: Multigenerational reproductive toxicity study, wistar, Oral, Feed, dose end: 2 generation. The source holds these as a separate data set.
[13] abbreviates: group: developmental, developmental / developmental malformation / bone / incomplete ossification + systemic / in life observation / body weight / fetal weight.
The mark [14] stands for this setting: group: maternal, systemic / in life observation / body weight / body weight gain + systemic / in life observation / clinical signs / alopecia + systemic / in….
[15] abbreviates: group: developmental, developmental / developmental malformation / bone / incomplete ossification + developmental / developmental malformation / bone / short + ….
Where [16] appears, read: group: maternal, reproductive / reproductive performance / resorptions / resorptions + systemic / in life observation / body weight / body weight + systemic….
Where [17] appears, read: group: cholinesterase, cholinesterase / cholinesterase / cholinesterase / brain cholinesterase (che) + cholinesterase / cholinesterase / cholinesterase / plasma ….
Setting [18] is: group: cholinesterase, cholinesterase / cholinesterase / cholinesterase / plasma cholinesterase (che).
Setting [19] is: group: systemic, systemic / clinical chemistry / cholesterol / cholesterol + systemic / hematology / erythrocyte (rbc) count differential / erythrocyte (rbc….
Setting [20] is: group: cholinesterase, cholinesterase / cholinesterase / cholinesterase / erythrocyte cholinesterase (che).
[21] abbreviates: group: systemic, systemic / organ weight / liver / absolute + systemic / organ weight / liver / relative to body weight.
The mark [22] stands for this setting: group: cholinesterase, cholinesterase / cholinesterase / cholinesterase / erythrocyte cholinesterase (che) + cholinesterase / cholinesterase / cholinesterase / ….
Setting [23] is: group: systemic, systemic / clinical chemistry / alanine aminotransferase (alt/sgpt) / alanine aminotransferase (alt/sgpt).
Setting [24] is: group: maternal, reproductive / reproductive performance / fertility / fertility + reproductive / reproductive performance / precoital interval / precoital ….
The mark [25] stands for this setting: group: offspring, developmental / offspring survival late / viability index / viability index.
[26] abbreviates: group: offspring, developmental / offspring survival late / viability index / viability index + reproductive / offspring survival early / dead fetuses / dead ….
Where [27] appears, read: group: parental, systemic / in life observation / body weight / body weight + systemic / in life observation / body weight / body weight gain + systemic / in….
Setting [28] is: group: reproductive, reproductive / reproductive performance / gestational length / gestational length + reproductive / reproductive performance / gestation ….
The mark [29] stands for this setting: group: offspring, systemic / in life observation / body weight / offspring (pup) weight + systemic / in life observation / body weight / offspring (pup) ….
The mark [30] stands for this setting: group: parental, systemic / organ weight / kidney / absolute + systemic / organ weight / kidney / relative to body weight + systemic / pathology microscopic….
Where [31] appears, read: group: developmental, developmental / developmental malformation / general / crown-rump length + systemic / in life observation / body weight / fetal weight.
[32] abbreviates: group: maternal, reproductive / reproductive performance / premature delivery / premature delivery + systemic / in life observation / body weight / body ….
The mark [33] stands for this setting: group: developmental, developmental / developmental malformation / bone / [other] + developmental / developmental malformation / bone / delayed ossification + ….
Setting [34] is: group: maternal, systemic / in life observation / body weight / body weight gain.
The mark [35] stands for this setting: group: developmental, developmental / developmental malformation / other / other + systemic / in life observation / body weight / fetal weight.
Setting [36] is: group: maternal, systemic / in life observation / clinical signs / defecation + systemic / in life observation / food consumption / food consumption + ….
Setting [37] is: group: developmental, developmental / developmental malformation / aortic arch / narrowed + developmental / developmental malformation / bone / [other] + ….
The mark [38] stands for this setting: group: developmental, developmental / developmental malformation / bone / incomplete ossification + developmental / developmental malformation / bone / wavy + ….
Where [39] appears, read: group: maternal, systemic / in life observation / body weight / body weight + systemic / in life observation / body weight / body weight gain + systemic / in….
The mark [40] stands for this setting: group: developmental, developmental / developmental malformation / liver / [other].
The mark [41] stands for this setting: group: maternal, reproductive / reproductive performance / aborted / aborted + systemic / in life observation / body weight / body weight gain + systemic / ….
Setting [42] is: group: parental, systemic / in life observation / body weight / body weight gain.

As to `Cc1cccc(C)c1NC(=O)c1ccc(N)cc1` [Ameltolide], the LEL amounted to 50 mg/kg/day in the data set with rat [1] (setting [13]), 50 mg/kg/day with rat [1] (setting [14]), 100 mg/kg/day with rabbit [2] (setting [15]) and 100 mg/kg/day in the data set on rabbit [2] (setting [16]). Further, the LOAEL with rat [1] (setting [13]) is over 50 mg/kg/day; with rat [1] (setting [14]), over 50 mg/kg/day; in the data set on rabbit [2] (setting [15]), over 100 mg/kg/day; with rabbit [2] (setting [16]), over 100 mg/kg/day. Besides, the NEL with rat [1] (setting [13]) is 25 mg/kg/day; in the data set with rat [1] (setting [14]), 25 mg/kg/day; with rabbit [2] (setting [15]), 50 mg/kg/day; in the data set on rabbit [2] (setting [16]), 50 mg/kg/day. Moreover, the NOAEL with rat [1] (setting [13]) was at least 50 mg/kg/day; in the data set with rat [1] (setting [14]), at least 50 mg/kg/day; with rabbit [2] (setting [15]), at least 100 mg/kg/day; in the data set with rabbit [2] (setting [16]), at least 100 mg/kg/day.

Regarding `CCOP(=S)(OCC)Oc1nc(Cl)c(Cl)cc1Cl` [Chlorpyrifos], the lowest-observed-adverse-effect level (LOAEL) was 1 mg/kg/day in the data set on rat [3] (setting [17]); over 10 mg/kg/day in the data set with rat [3] (setting [19]); 0.03 mg/kg/day in the data set with dog (setting [18]); over 3 mg/kg/day in the data set with dog (setting [21]); 0.75 mg/kg/day in the data set with rat [4] (setting [22]); over 0.75 mg/kg/day with rat [4] (setting [23]). In addition, the NEL in the data set with rat [3] (setting [17]) was 0.05 mg/kg/day; with rat [3] (group: systemic, systemic / clinical chemistry / cholesterol / cholesterol + systemic / in life observation / body weight / body weight + systemic / …), 0.1 mg/kg/day; with dog (setting [20]), under 0.01 mg/kg/day; in the data set with dog (setting [21]) it was 1 mg/kg/day; with rat [4] (setting [22]), 0.15 mg/kg/day; with rat [4] (setting [23]) it was 0.03 mg/kg/day. Further, the NOAEL is 0.1 mg/kg/day in the data set on rat [3] (setting [17]); at least 10 mg/kg/day in the data set on rat [3] (setting [19]); 0.01 mg/kg/day with dog (group: cholinesterase, cholinesterase / cholinesterase / cholinesterase / plasma cholinesterase (che) + cholinesterase / cholinesterase / cholinesterase / …); at least 3 mg/kg/day in the data set with dog (setting [21]); 0.15 mg/kg/day with rat [4] (setting [22]); at least 0.75 mg/kg/day with rat [4] (setting [23]). Moreover, the LEL with rat [3] (setting [18]) is 0.1 mg/kg/day; in the data set with rat [3] (group: systemic, systemic / clinical chemistry / cholesterol / cholesterol + systemic / clinical chemistry / alkaline phosphatase (alp/alk) / alkaline …) it was 1 mg/kg/day; in the data set on dog (setting [20]), 0.01 mg/kg/day; with dog (setting [21]), 3 mg/kg/day; in the data set on rat [4] (setting [22]) it was 0.75 mg/kg/day; with rat [4] (setting [23]), 0.15 mg/kg/day.

With `Fc1ccc([C@@]2(Cn3cncn3)O[C@@H]2c2ccccc2Cl)cc1` [Epoxiconazole], the LEL with rat [5] (setting [24]) was found to be 22.1 mg/kg/day; with rat [5] (setting [25]) it was 0.85 mg/kg/day; with rat [5] (setting [27]) it was 22.1 mg/kg/day; with rat [5] (setting [28]) it was 31.9 mg/kg/day. For the same molecule, the LOAEL in the data set on rat [5] (setting [24]) turned out to be 22.1 mg/kg/day; with rat [5] (setting [26]), 22.1 mg/kg/day; with rat [5] (setting [27]), 22.1 mg/kg/day; with rat [5] (setting [28]), 31.9 mg/kg/day. Moreover, the NEL in the data set on rat [5] (setting [24]) was 2.17 mg/kg/day; in the data set with rat [5] (setting [25]), under 0.85 mg/kg/day; in the data set with rat [5] (setting [27]), 2.17 mg/kg/day; in the data set with rat [5] (setting [28]) it was 2.41 mg/kg/day. Also, the NOAEL in the data set with rat [5] (setting [24]) amounted to 2.17 mg/kg/day; in the data set with rat [5] (setting [26]), 2.17 mg/kg/day; in the data set on rat [5] (setting [27]) it was 2.17 mg/kg/day; with rat [5] (setting [28]), 2.41 mg/kg/day.

For the molecule `O=C(NCc1ncc(C(F)(F)F)cc1Cl)c1c(Cl)cccc1Cl` [Fluopicolide], the LEL was 180 mg/kg/day in the data set with rat [6] (setting [29]); 145 mg/kg/day in the data set on rat [6] (setting [30]); 60 mg/kg/day in the data set on rabbit [7] (setting [31]); 60 mg/kg/day in the data set with rabbit [7] (setting [32]); 700 mg/kg/day in the data set on rat [8] (setting [33]); 700 mg/kg/day in the data set on rat [8] (setting [34]). The LOAEL with rat [6] (setting [29]) came out at 180 mg/kg/day; with rat [6] (setting [30]), 145 mg/kg/day; in the data set with rabbit [7] (setting [31]) it was 60 mg/kg/day; in the data set on rabbit [7] (setting [32]), 60 mg/kg/day; in the data set on rat [8] (setting [33]), 700 mg/kg/day; in the data set on rat [8] (setting [34]), 700 mg/kg/day. The NEL with rat [6] (setting [29]) stood at 43.7 mg/kg/day; in the data set on rat [6] (setting [30]), 36.4 mg/kg/day; in the data set with rabbit [7] (setting [31]), 20 mg/kg/day; in the data set with rabbit [7] (setting [32]) it was 20 mg/kg/day; in the data set with rat [8] (setting [33]), 60 mg/kg/day; in the data set with rat [8] (setting [34]), 60 mg/kg/day. The NOAEL in the data set on rat [6] (setting [29]) came out at 43.7 mg/kg/day; in the data set with rat [6] (setting [30]), 36.4 mg/kg/day; in the data set on rabbit [7] (setting [31]), 20 mg/kg/day; in the data set on rabbit [7] (setting [32]) it was 20 mg/kg/day; in the data set with rat [8] (setting [33]), 60 mg/kg/day; with rat [8] (setting [34]), 60 mg/kg/day.

For `[Na+].[O-][Cl+][O-]` [Sodium chlorite], in the data set with rabbit [9] (setting [35]), the LEL was 35.5 mg/kg/day, the LOAEL is 35.5 mg/kg/day, the NEL came out at 13 mg/kg/day and the NOAEL stood at 13 mg/kg/day. Further, in the data set with rabbit [9] (setting [36]), the LEL was 35.5 mg/kg/day, the LOAEL came out at 35.5 mg/kg/day, the NEL stood at 13 mg/kg/day and the NOAEL was 13 mg/kg/day.

Consider `CCOC(=O)OC1=C(c2cc(C)ccc2C)C(=O)NC12CCC(OC)CC2` (configuration not stated) [Spirotetramat], for which the LOAEL with rat [10] (setting [37]) is 1000 mg/kg/day; in the data set on rat [10] (setting [39]), 1000 mg/kg/day; in the data set on rabbit [11] (setting [40]), over 160 mg/kg/day; with rabbit [11] (setting [41]), 40 mg/kg/day; with rat [12] (setting [29]), 487 mg/kg/day; in the data set on rat [12] (setting [42]) it was 419 mg/kg/day. Besides, the NOAEL is 140 mg/kg/day in the data set on rat [10] (setting [37]); 140 mg/kg/day with rat [10] (setting [39]); at least 160 mg/kg/day in the data set with rabbit [11] (setting [40]); 10 mg/kg/day in the data set on rabbit [11] (setting [41]); 79.5 mg/kg/day with rat [12] (setting [29]); 70.7 mg/kg/day with rat [12] (setting [42]). In addition, the LEL with rat [10] (setting [38]) is 20 mg/kg/day; with rat [10] (group: maternal, systemic / in life observation / body weight / body weight), 140 mg/kg/day; with rabbit [11] (setting [40]), 160 mg/kg/day; with rabbit [11] (setting [41]), 40 mg/kg/day; in the data set with rat [12] (group: offspring, systemic / in life observation / body weight / offspring (pup) weight gain), 79.5 mg/kg/day; with rat [12] (setting [42]) it was 419 mg/kg/day. The NEL in the data set with rat [10] (setting [38]) is under 20 mg/kg/day; with rat [10] (setting [39]), 20 mg/kg/day; in the data set with rabbit [11] (setting [40]), 40 mg/kg/day; in the data set on rabbit [11] (setting [41]), 10 mg/kg/day; in the data set on rat [12] (setting [29]), 19.3 mg/kg/day; in the data set with rat [12] (setting [42]) it was 70.7 mg/kg/day.
